Reference: patent US20100099917A1, “Integrin modulators and methods for their use” (Billings Pharmaceuticals, Inc., priority 2004, published 2010)

Experiments:
[1] = tested on: HIV-1RF-infected H9 cells; experiment: Inhibition of HIV-induced syncytium formation (uninfected H9 cells with HIV-1RF-infected H9 cells); assay type: cell-based; conditions: for IC100 of syncytium formation: H9 + HIV-1RF-infected H9 cells, 6 to 15 hours at 37° C.
Description: The purified enantiomers were taken up in DMSO at a concentration of 10 mg/mL. Dilutions were made in RPMI 1640 medium containing 10% fetal calf serum and 10 mM HEPES (cRPMI). H9 cells (ATCC, Rockville, Md.) infected with HIV-1RF (NIH AIDS Repository, Rockville, Md.) and uninfected H9 cells were washed with cRPMI and resuspended in cRPMI at a density of 4×10^6 per mL. Uninfected cells (50 μL) were mixed with serial dilutions of the compounds (100 μL) and incubated at 37° C. for 30 min before adding and mixing 50 μL of infected H9 cells. The plates were incubated at 37° C. for 6 to 15 hours before scoring syncytium formation.
For all the curves, the effect of ajoene enantiomers and enantiomer mixtures on the fusion of cultured, intact H9 cells with HIV-1RF-infected H9 cells is disclosed. The vertical graph axis expresses the maximum amount of syncytia formed in the absence of the compounds (100 percent), while the points on the curves represent percentages of such an amount of syncytia formed in the presence of varying concentrations of the compounds and compound mixtures (micromoles per liter).

VLA-4 = target: T1, VLA-4 (Homo sapiens, UniProt P05556+P13612); experiment: Inhibition of VLA-4-mediated adhesion of HRP-labeled PMI cells to VCAM-1-coated substrata; assay type: cell-based
T1 construct: VLA-4-mediated adhesion of enzyme-labeled PM1 cells to VCAM-1-coated artificial substrata; host or cells: PM1 (printed 'PMI') cells
T1 sequence (P13612 34-1032): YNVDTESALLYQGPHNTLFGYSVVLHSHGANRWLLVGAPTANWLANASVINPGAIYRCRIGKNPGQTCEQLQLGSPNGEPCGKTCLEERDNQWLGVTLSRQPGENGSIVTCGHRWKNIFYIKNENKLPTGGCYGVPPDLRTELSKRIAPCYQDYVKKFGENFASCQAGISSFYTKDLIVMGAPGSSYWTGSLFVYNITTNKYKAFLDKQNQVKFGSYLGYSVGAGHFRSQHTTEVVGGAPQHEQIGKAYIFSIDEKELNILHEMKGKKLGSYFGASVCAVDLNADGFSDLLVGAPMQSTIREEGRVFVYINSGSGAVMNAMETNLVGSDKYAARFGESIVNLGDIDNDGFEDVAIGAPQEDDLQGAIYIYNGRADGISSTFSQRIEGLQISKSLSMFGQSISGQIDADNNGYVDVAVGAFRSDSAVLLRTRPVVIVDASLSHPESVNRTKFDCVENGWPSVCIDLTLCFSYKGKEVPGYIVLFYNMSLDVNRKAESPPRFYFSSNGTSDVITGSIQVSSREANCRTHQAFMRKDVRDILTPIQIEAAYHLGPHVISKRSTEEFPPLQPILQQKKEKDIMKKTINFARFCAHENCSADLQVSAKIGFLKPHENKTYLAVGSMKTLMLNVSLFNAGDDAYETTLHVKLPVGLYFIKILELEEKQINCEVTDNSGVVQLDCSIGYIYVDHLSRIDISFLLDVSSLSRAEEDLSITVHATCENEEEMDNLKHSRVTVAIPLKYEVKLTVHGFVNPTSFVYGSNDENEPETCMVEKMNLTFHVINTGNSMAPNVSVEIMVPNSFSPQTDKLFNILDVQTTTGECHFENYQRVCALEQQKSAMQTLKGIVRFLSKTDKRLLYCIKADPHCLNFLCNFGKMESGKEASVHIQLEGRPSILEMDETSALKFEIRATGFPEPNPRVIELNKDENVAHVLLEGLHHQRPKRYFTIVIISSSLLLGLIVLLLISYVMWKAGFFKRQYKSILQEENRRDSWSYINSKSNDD
T1 sequence (P05556 21-798): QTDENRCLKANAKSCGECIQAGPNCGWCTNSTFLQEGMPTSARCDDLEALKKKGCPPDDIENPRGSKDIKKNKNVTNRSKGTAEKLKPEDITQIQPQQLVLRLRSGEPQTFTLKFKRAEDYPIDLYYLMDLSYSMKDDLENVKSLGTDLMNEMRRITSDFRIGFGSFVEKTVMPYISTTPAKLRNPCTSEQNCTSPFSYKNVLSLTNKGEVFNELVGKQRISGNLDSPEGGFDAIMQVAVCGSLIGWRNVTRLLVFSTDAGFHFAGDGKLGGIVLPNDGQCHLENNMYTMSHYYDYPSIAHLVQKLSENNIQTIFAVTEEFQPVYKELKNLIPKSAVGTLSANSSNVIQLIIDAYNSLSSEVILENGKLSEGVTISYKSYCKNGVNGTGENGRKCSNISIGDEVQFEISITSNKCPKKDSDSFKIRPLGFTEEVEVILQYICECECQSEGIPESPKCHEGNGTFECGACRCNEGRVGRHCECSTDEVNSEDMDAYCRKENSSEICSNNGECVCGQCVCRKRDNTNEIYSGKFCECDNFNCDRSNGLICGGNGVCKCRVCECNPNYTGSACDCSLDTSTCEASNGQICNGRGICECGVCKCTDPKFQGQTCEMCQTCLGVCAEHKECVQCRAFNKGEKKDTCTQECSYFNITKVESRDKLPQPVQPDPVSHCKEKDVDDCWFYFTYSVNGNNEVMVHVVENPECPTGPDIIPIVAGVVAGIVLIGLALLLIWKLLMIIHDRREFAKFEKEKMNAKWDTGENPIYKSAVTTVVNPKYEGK
Description: In addition, the present invention provides methods whereby the integrin-modulating activity of DDCs may be assessed. One such method involves VLA-4-mediated adhesion of enzyme-labeled PM1 cells to VCAM-1-coated artificial substrata. Specifically, the cells are exposed to isolated DDC enantiomers (or the vehicle thereof) and allowed to adhere or not adhere to immobilized VCAM-1. Thereafter, the adherent cells are lysed and, following addition of the substrate of the enzyme and incubation, the activity of the enzyme is measured spectrophotometrically. The value of this parameter, characterizing the number of the adherent cells, is inversely proportional to integrin-modulating activity of the compound. Another such method is based on the inhibition of HIV-mediated syncytium formation, a phenomenon known to depend on integrin-mediated functions. Yet another method is based on the inhibition of cell-to-cell HIV transmission, a process also dependent on integrin-mediated functions. Modulating activity of integrin-mediated functions by the enantiomers was compared in a well-defined system of inhibition of VLA-4-mediated adhesion of enzyme-labeled PMI cells (NIH AIDS Repository, Rockville, Md.) to VCAM-1-coated artificial substrata. […] The reaction was stopped with 0.5 M H2SO4, and the optical density of the wells was read at 450 nm. […]

[2] = tested on: U937 cells infected with HIV-1 RT; experiment: Inhibition of syncytium formation (MT2 cells with HIV-1 RT-infected U937 cells); assay type: cell-based; conditions: MT2 + HIV-1 RT-infected U937 cells, 13 hours
[3] = target: platelet integrin, GP IIb/IIIa (Homo sapiens, UniProt P05106+P08514); conditions: allosteric inactivation of GP IIb/IIIa; cited from earlier work
Sequence of platelet integrin, GP IIb/IIIa (P08514 32-887 limits assumed): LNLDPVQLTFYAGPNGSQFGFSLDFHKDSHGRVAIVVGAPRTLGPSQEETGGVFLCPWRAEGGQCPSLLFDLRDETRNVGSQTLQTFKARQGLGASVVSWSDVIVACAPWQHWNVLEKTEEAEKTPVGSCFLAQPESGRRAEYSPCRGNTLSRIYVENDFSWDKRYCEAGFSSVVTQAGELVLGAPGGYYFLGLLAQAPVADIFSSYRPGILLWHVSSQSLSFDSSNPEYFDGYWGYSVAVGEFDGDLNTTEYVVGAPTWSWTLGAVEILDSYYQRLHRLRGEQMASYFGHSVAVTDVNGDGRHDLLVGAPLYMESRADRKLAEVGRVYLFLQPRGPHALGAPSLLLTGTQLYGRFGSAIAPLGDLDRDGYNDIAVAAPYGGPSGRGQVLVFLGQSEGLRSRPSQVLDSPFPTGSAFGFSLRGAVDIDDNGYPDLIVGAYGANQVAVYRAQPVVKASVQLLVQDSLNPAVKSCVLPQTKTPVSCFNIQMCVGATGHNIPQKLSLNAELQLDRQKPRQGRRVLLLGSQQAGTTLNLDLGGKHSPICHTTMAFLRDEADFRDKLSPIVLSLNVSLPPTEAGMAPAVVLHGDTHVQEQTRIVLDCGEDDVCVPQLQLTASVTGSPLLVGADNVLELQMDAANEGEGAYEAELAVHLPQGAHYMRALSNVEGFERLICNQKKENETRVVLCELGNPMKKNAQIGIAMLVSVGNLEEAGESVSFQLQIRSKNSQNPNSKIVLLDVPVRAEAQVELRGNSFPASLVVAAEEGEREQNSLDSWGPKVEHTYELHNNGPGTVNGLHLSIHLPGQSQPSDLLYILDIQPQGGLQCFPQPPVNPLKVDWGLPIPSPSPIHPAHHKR
Sequence of platelet integrin, GP IIb/IIIa (P08514 891-1039 limits assumed): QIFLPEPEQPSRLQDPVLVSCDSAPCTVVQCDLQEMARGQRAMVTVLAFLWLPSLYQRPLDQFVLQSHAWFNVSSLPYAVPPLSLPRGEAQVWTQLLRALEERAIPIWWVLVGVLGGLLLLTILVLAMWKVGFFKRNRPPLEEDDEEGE
Sequence of platelet integrin, GP IIb/IIIa (P05106 27-788): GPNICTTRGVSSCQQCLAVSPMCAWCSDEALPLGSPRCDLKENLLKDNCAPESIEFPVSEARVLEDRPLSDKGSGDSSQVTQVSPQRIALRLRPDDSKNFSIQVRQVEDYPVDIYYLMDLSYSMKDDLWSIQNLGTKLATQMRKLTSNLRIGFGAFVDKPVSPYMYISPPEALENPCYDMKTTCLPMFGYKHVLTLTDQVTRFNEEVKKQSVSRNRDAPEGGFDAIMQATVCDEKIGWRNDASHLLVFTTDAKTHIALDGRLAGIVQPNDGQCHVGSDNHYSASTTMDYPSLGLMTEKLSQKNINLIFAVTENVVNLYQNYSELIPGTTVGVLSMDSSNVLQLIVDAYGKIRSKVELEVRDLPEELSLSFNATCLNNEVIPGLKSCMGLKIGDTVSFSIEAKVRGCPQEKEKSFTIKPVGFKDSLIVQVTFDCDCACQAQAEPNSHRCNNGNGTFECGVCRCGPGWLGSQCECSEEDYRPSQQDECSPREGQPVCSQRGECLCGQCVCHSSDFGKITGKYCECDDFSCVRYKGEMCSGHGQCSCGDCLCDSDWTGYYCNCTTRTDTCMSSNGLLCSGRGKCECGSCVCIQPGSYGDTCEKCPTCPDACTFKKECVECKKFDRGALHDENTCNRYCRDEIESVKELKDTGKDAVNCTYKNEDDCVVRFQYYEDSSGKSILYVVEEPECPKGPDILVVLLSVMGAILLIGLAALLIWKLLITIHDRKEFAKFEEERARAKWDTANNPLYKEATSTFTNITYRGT

[4] = tested on: adhesion-dependent processes; conditions: mixtures of E- and Z-isomers; cited from earlier work

C=CCSS/C=C/C[S+]([O-])CC=C (racemic) [racemic (E)-ajoene, reference compound]
IC100 of syncytium formation [1]: 50 micromoles per liter

C=CCSS/C=C\C[S+]([O-])CC=C (stereo not drawn) [(Z)-(+) counterpart]
IC100 of syncytium formation [1]: 50 micromoles per liter

C=CCSS/C=C\C[S+]([O-])CC=C (stereo not drawn) [(Z)-(−)-enantiomer, (Z)-(−)-4,5,9-trithiadodeca-1,6,11-triene-9-oxide]
adhesion-inhibiting activity, fold higher than any other enantiomer of the original 3:1 mixture (VLA-4; PMI cells on VCAM-1, optical density read at 450 nm): 4 fold | activity compared with the parent racemates (E-, Z-ajoenes and mixtures) (VLA-4; conclusion from Examples 2 and 3 taken together): significantly higher | IC100 of syncytium formation [1]: 12.5 micromoles per liter | activity as an integrin modulator relative to other enantiomers, racemic E-ajoene or the unseparated 3:1 mixture ([1]; summary statement in the description, covers Examples 2 and 3): at least four times more active | activity relative to (Z)-(+) counterpart, racemic (E)-ajoene or the unseparated 3:1 mixture ([1]; syncytium formation, FIG. 1 curves): at least four times more active | syncytium formation inhibition, result compared with the H9 system [2]: A similar result was obtained

C=CCSS/C=C/C[S+]([O-])CC=C (stereo not shown) [ajoene, 4,5,9-trithiadodeca-1,6,11-triene-9-oxide]
effect on platelet aggregation [3]: inhibit platelet aggregation | inhibition of adhesion-dependent processes [4]: potent inhibitor
